1 substance from PMC9232612, “A phase 1b randomised controlled trial of a glucagon-like peptide-1 and glucagon receptor dual agonist IBI362 (LY3305677) in Chinese patients with type 2 diabetes” (Nature Communications, 2022) can be followed below.

Assay [1] relates to Chinese patients with T2D. Put plainly: Glycated haemoglobin A1c (HbA1c). Format: in vivo, human. The following applies: 1.5 mg once weekly; for HbA1c at week 12, single patients: each line a single patient. Here is the method:
(§1) HbA1c (2200101, Bio-Rad, USA), blood glucose (05168791190, Roche Diagnostics, Germany), insulin (12017547122, Roche Diagnostics, Germany), C peptide (03184897190, Roche Diagnostics, Germany), total GLP-1 (GLP-1 [7–36] amide and its metabolite, GLP-1 [9–36] amide, 10-1278-01, Mercodia AB, Sweden) and OXM (AL-139, AnshLabs, USA) tests were performed according to the manufactures’ instruction manuals in a central laboratory (KingMed Diagnostics, Guangzhou, China). HbA1c was measured using a Bio-rad D-100 Haemoglobin Testing System (Bio-rad). Blood glucose was measured using a Roche Cobas c702 analyser (Roche Diagnostics). Insulin and C peptide were measured using a Roche […] analyser (Roche Diagnostics). GLP-1 and OXM were measured using a Tecan Infinite M Plex microplate reader (TECAN).
(§2) Standard non-compartmental pharmacokinetics methods were used to analyze IBI362 plasma concentration data using Pkanalix 2020R1 (Lixoft, Antony, France). Secondary efficacy outcomes included change from baseline to week 12 in HbA1c, fasting plasma glucose (FPG), fasting insulin levels, change from baseline to week 12 in post-mixed-meal tolerance test (post-MTT) glucose, insulin, C peptide, GLP-1 and OXM levels, as well as seven-point self-measured blood glucose (SMBG) profile.
(§3) The analyses for change from baseline in HbA1c, FPG, post-MTT glucose AUC0–4 h and body weight were performed using the mixed-effect model for repeated measures (MMRM) with least-squares means and standard error provided. The MMRM included the corresponding baseline value, treatment, visit and treatment-by-visit as fixed effects and patient as a random effect. Mean change or mean percent change from baseline were analysed using a restricted maximum likelihood (REML)‐based repeated measures approach in combination with the Newton Raphson Algorithm. The fix effect of visit was fitted as a repeated effect and an unstructured covariance matrix was used. In case of non-converge, matrix like Variance Components and Compound Symmetry will be tested in a subsequent order until model‐convergence is achieved. The Kenward-Roger degree of freedom was used in estimating fixed effects. No missing data imputation was conducted. For HbA1c, FPG and body weight, point estimate of treatment difference versus placebo and 90% CI were provided for each IBI362 dose group and the dulaglutide group, with nominal p values.

Assay [2] deals with Chinese patients with T2D. Nature of the assay: Mixed-meal tolerance test (MTT): plasma glucose and glucose AUC0-4 h. Format: in vivo, human. The following applies: 1.5 mg once weekly, n=6. Here is the method:
as §1, §2
as §3, with “values. […]” for “values.”
3. Standard meal test (MTT) collection measures included: insulin, C-peptide, plasma glucose, glucagon, endogenous OXM, and endogenous GLP-1. The sampling points include: fasting, 30 min, 1h, 2h, 3h and 4h.
A total of 9 mL blood will be collected from each blood collection point. See the manual of the central laboratory for the detailed operation process. Fasting state refers to fasting for 10 hours. [ The standard meal is
instant noodles. The master Kang roast beef noodles (bucket noodles) purchased by the sponsor in a unified manner are removed from the oil bag. The noodles are soaked in boiled water and then removed. The seasoning
bag is added and mixed well. The time is counted from the first bite of eating. The noodles are eaten within 10 minutes, and 200 mL of water is drunk; or the instant noodles are directly opened with 200 mL of boiled
water to ensure that the noodles are eaten and the water or soup is drunk]. Visit days when MTT test is performed: 1 day prior to Cycle 1 administration, Day 80 (D80). […]
● Test by central laboratory

Values joined by “and” are separate entries in the source; they are usually repeats but may differ in a detail not shown here. Equal values may be shown once.

On to “Dulaglutide: open-label active reference, subcutaneously once weekly at a fixed dose of 1.5 mg [reference compound]”, for which the “Percent of patients with change from baseline to week 12 in HbA1c <1.0%” value in assay [1] (n=6) was 16.7%. In assay [1] (n=6), the “Percent of patients with change from baseline to week 12 in HbA1c ≥1.0% and <1.5%” value is given as 50.0%. Further, the “Percent of patients with change from baseline to week 12 in HbA1c ≥1.5% and <2.0%” value in assay [1] (n=6) is 0.0%. The “Percent of patients with change from baseline to week 12 in HbA1c ≥2.0%” value in assay [1] (n=6) stood at 33.3%. Moreover, the “HbA1c at week 12, single patients” value is 6.4% and 6.6% and 6.5% and 7.2% and 6.0% in assay [1]; 5.5% in assay [1] (listed as dulaglutide). Moreover, the “Change from baseline in HbA1c, LS mean” value in assay [1] (week 4, n=6, MMRM) is listed as -1.03%; in assay [1] (week 8, n=6, MMRM), -1.72%. For the same substance, the “patients achieving ≥1.5% reductions in HbA1c from baseline” value in assay [1] (week 12, n=6) was 33.3%. The “Change from baseline in HbA1c, LS mean (SE)” value in assay [1] (week 12, n=6, MMRM) is reported as -1.98%. In addition, in assay [1] (week 12, MMRM), the “HbA1c: ETD versus placebo, LS mean (90% CI)” value is on record as −1.11%. For the same substance, the “Percent change from baseline to week 12 in post-MTT glucose AUC0-4 h, LS mean” value in assay [2] (MMRM) is on record as -41.70%. In addition, the “Glucose during MTT, mean” value in assay [2] (week 12, 0 min) worked out at 7.18 mmol/L; in assay [2] (week 12, 30 min), 9.32 mmol/L; in assay [2] (week 12, 60 min), 11.86 mmol/L; in assay [2] (week 12, 120 min), 9.62 mmol/L; in assay [2] (week 12, 180 min), 7.11 mmol/L; in assay [2] (week 12, 240 min), 6.79 mmol/L.
